Measurements reported in patent publication US6518289B1 (Pfizer, Inc., priority 1997, dated 2003).
Where a name gives a salt, the structure may show the parent alone.

Tests used:
DBA2 audiogenic seizure = DBA2 audiogenic seizure model
[1] = test system: carrageenan induced hyperalgesia; test: carrageenan induced hyperalgesia assay (Pain Model)
[2] = 30 mg/kg orally in the rat, at 1 hour
[3] = 30 mg/kg orally in the rat, at 2 hours

For `Cl.NCC1(Cc2noc(=O)[nH]2)CCCCC1`, the “1 Hour (second column pair, group head not given)” value (DBA2 audiogenic seizure) was 20, the “2 Hours (second column pair, group head not given)” value (DBA2 audiogenic seizure) was 40 and the “duration of antihyperalgesic effect compared with gabapentin” value ([1]; 30 mg/kg orally in the rat) was “antihyperalgesic effect of longer duration than gabapentin”. The “increase of paw withdrawal latency” value [1, 2] was 80.6%, the “increase of paw withdrawal latency” value [1, 3] was 76% and the “Pain Model % MPE 1 Hour” value [1] was 80.6 % MPE. The “Pain Model % MPE 2 Hours” value [1] was 76.1 % MPE and the “activity in the carrageenan induced hyperalgesia assay” value ([1]; result in words) was “active”.
With `CS(=O)(=O)NCCC1(CN)CCCCC1` (as salt: hydrochloride) [N-[2-1-Aminomethyl-cyclohexyl)-ethyl]-methanesulfonamide hydrochloride] the melting point was 196 to 199 °C.
In the case of `Cl.NCC1(Cc2noc(=S)[nH]2)CCCCC1` [3-(1-Aminomethyl-cyclohexylmethyl)-4H-[1,2,4]oxadiazole-5-thione; hydrochloride], the “1 Hour (second column pair, group head not given)” value (DBA2 audiogenic seizure) was 0, the “2 Hours (second column pair, group head not given)” value (DBA2 audiogenic seizure) was 0 and the melting point was 210 to 212 °C.
`Cl.NCC1(Cc2nnn[nH]2)CCCCC1` [C-[1-(1H-Tetrazol-5-ylmethyl)-cyclohexyl)-methylamine hydrochloride] showed a protection (DBA2 audiogenic seizure; 10 mg/kg oral dosing, 1 hour postdose) of 60%, a protection (DBA2 audiogenic seizure; 10 mg/kg oral dosing, 2 hours postdose) of 100% and a protection (DBA2 audiogenic seizure; 10 mg/kg oral dosing, 4 hours postdose) of 100%. For the same compound, the protection (DBA2 audiogenic seizure; 10 mg/kg oral dosing, 6 hours postdose) was 80%, the “1 Hour (second column pair, group head not given)” value (DBA2 audiogenic seizure) was 60 and the “2 Hours (second column pair, group head not given)” value (DBA2 audiogenic seizure) was 100.
With `NCC1(CC(=O)O)CCCCC1` [Gabapentin, 1-(aminomethyl)-cyclohexaneacetic acid, reference compound] the “response in the DBA2 audiogenic seizure model” value (DBA2 audiogenic seizure; 10 mg/kg orally, result in words) was “no significant response”, the protection (DBA2 audiogenic seizure; 30 mg/kg, 2 hours postdose) was 100% and the “1 Hour (second column pair, group head not given)” value (DBA2 audiogenic seizure) was 100. For the same compound, the “2 Hours (second column pair, group head not given)” value (DBA2 audiogenic seizure) was 100, the “increase of paw withdrawal latency” value [1, 2] was 49.9% and the “increase of paw withdrawal latency” value [1, 3] was 19.9%. For the same compound, the “Pain Model % MPE 1 Hour” value [1] was 49.9 % MPE and the “Pain Model % MPE 2 Hours” value [1] was 19.9 % MPE.
In the case of `CS(=O)(=O)NCCC1(CN)CCCCC1` [N-[2-1-Aminomethyl-cyclohexyl)-ethyl]-methanesulfonamide hydrochloride], the “2 Hours (second column pair, group head not given)” value (DBA2 audiogenic seizure) was 0, the “Pain Model % MPE 1 Hour” value [1] was 0.3 % MPE and the “Pain Model % MPE 2 Hours” value [1] was −0.9 % MPE.
For `CC(C)(C)C(=O)NCCC1(CN)CCCCC1` [N-[2-(1-Aminomethyl-cyclohexyl)-ethyl]-t-butylamide], the “2 Hours (second column pair, group head not given)” value (DBA2 audiogenic seizure) was 0, the “Pain Model % MPE 1 Hour” value [1] was 1.6 % MPE and the “Pain Model % MPE 2 Hours” value [1] was −4.8 % MPE.
